Measured values from ChEMBL document CHEMBL1124452, “New sensitizers for photodynamic therapy: controlled synthesis of purpurins and their effect on normal tissue” (1989).

Tested on: Rattus norvegicus
Experiment: In vivo cytotoxicity to the FANFT-induced urothelial cell carcinoma transplanted onto Fischer CDF (F344/CrlBR) rats (Tumoricidal activity)
Type: functional

SMILES | Therapeutic dose
CCOC(=O)C1=Cc2c3nc(cc4nc(cc5[nH]c(cc6[nH]c2c(CC)c6CC)c(CC)c5CC)C(CC)=C4CC)C(CC)C13CC (configuration not stated) [OCTAETHYLPURPURIN] | 5 mg/kg
CCOC(=O)C1=Cc2c3nc(cc4nc(cc5[nH]c(cc6[nH]c2c(C)c6CC)c(C)c5CC)C(C)=C4CC)C(C)C13CC (configuration not stated) [ETIOPURPURIN] | 2.5 mg/kg
